Data as given in patent US20130131161A1, “METHODS AND COMPOSITIONS FOR CARDIOVASCULAR DISEASES AND CONDITIONS” (priority 2009, published 2013).

Test system: Human umbilical vein endothelial cells (HUVECs)
Experiment: Comparison of LA-419 and ISDN: NO and ONOO− release from HUVECs measured with tandem electrochemical nanosensors (Example 1)
Assay type: cell-based
Conditions: for NO release (mean ± S.D.) / ONOO− release (mean ± S.D.): 500 nM, 12 hours, then CaI (1.0 μM)
Experimental: Human umbilical vein endothelial cells (HUVECs) were isolated into primary cultures and purchased as proliferating cells from Clonetics (San Diego, Calif.). All cell culture donors were healthy, with no pregnancy or prenatal complications. The cultured cells were incubated in 95% air/5% CO2 at 37° C. and passage by an enzymatic (trypsin) procedure. The confluent cells (4 to 5×10^5 cells per 35-mm dish) were placed with minimum essential medium containing 3 mM L-arginine and 0.1 mM BH4 [(6R)-5,6,7,8-tetrahydrobiopterin]. Before the experiments, the cells (from second or third passage) were rinsed twice with Tyrode-HEPES buffer with 1.8 mM CaCl2. ISDN was obtained from Sigma-Aldrich.
Concurrent measurements of NO and ONOO^− were carried out with tandem electrochemical nanosensors combined into one working unit with a total diameter of 200-500 nm (FIG. 1). Their design was based on previously developed and well-characterized chemically modified carbon-fiber technology (Malinski and Taha, 1992; Lvovich and Scheeline, 1997). Each of the nanosensors was made by depositing a sensing material on the tip of a carbon fiber (length 4-5 μm, diameter 0.2-0.5 μm). The fibers were sealed with nonconductive epoxy and electrically connected to copper wires with conductive silver epoxy. A conductive film of polymeric nickel (II) tetrakis(3-methoxy-4-hydroxyphenyl)porphyrin for the NO-sensor and polymeric film of Mn (III) [2.2]paracyclophanylporphyrin was used for the ONOO^−-sensor.
A module of NO/ONOO^− nanosensors (diameter 1-2 μm) with a platinum wire (0.1 mm) counter electrode and saturated calomel reference electrode (SCE) were applied. Differential pulse voltammetry (DPV) and amperometry were performed with a computer-based Gamry VFP600 multichannel potentiostat. DPV was used to measure the basal NO and ONOO^− concentrations, and amperometry was used to measure changes in NO and ONOO^− concentrations from its basal level with time. The DPV current at the peak potential characteristic for NO oxidation (0.65 V) and ONOO^− reduction (−0.45 V) was directly proportional to the local concentrations of these compounds in the immediate vicinity of the sensor. Linear calibration curves (current vs. concentration) were constructed for each sensor from 10 nM to 3 μM before and after measurements with aliquots of NO and ONOO^− standard solutions, respectively. The detection limit of the sensors was 1.0 nM.
The quantification of each analyte (concentration in nM) was performed using a maximum current from amperograms and standard calibration curves. A reproducibility of measurements with nanosensors is relatively high (between 5-12%). […] The sensors were slowly raised 5±2 μm from the surface of a single endothelial cell. The eNOS agonist, calcium ionophore A23187 (CaI) as well as the different drugs were then added to the surrounding media at the cell surface with a nanoinjector that was also positioned by a computer controlled-micromanipulator.
The HUVEC preparation is stable over the course of these experiments with the cells remaining viable in culture for >24 hours. Under non-stimulating conditions, basal levels of NO release are very low (<30 nM). Measurement of NO release as a function of treatment was conducted in individual endothelial cells. Multiple measurements of NO release can be conducted on single cells following a brief refractory period. For robust statistical analysis, separate cells were used for each concentration and type of drug used in these analyses.

[1] = HUVECs from Non-Hispanic Whites

SMILES: CC(=O)SC1COC2C(O[N+](=O)[O-])COC12 (stereo not drawn) [LA-419, S-(6-Nitro-oxi-hexahydro-furo[3,2-b]furan-3-1-il)thioacetate]
- NO release (mean ± S.D.) (HUVECs from African Americans): 253 ± 15 nM
- ONOO− release (mean ± S.D.) (HUVECs from African Americans): 532 ± 25 nM
- NO release (mean ± S.D.) [1]: 409 ± 30 nM
- ONOO− release (mean ± S.D.) [1]: 307 ± 11 nM
- effect on NO release (HUVECs from both non-Hispanic whites and African Americans, identical conditions): small increase
- NO/ONOO− ratio versus control samples (HUVECs, 12 h treatment): not significantly different from control samples
